Data: publication PMC3568925 (Biochemistry, 2013)

Target: BacD (Bacillus subtilis, UniProt P39641)
Test: LC/MS and 1H-NMR of dipeptide product
Format: biochemical
Settings: 1 mM substrate, 3 mM L-Ala, 3 mM ATP, 5 mM MgCl2, 20 uM BacD, 50 mM potassium phosphate pH 8.0, room temperature

Chain of BacD (P39641 whole entry): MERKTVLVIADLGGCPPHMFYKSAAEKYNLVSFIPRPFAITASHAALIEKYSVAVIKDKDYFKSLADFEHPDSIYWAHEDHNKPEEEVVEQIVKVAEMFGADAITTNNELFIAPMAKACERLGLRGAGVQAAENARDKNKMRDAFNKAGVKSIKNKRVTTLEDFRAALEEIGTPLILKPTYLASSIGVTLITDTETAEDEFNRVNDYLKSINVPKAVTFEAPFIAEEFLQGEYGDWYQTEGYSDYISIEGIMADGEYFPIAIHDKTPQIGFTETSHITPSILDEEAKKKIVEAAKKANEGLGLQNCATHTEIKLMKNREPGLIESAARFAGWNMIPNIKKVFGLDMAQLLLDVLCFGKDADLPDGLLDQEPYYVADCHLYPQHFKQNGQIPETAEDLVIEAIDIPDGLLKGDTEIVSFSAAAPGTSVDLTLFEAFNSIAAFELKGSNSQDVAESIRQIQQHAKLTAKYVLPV

SMILES: N[C@@H](C[C@H]1C=C[C@H](O)CC1)C(=O)O [4S-H4Tyr]
- LC/MS and 1H-NMR of dipeptide product: BacD would ligate L-Ala onto the N-terminus of both the 4S and 4R diastereomers
